Results: US5906831A, “Controlled release composition forming a reversed micellar (L2) structure or a normal micellar (L1) structure” (GS Development AB, priority 1994, dated 1999)

Assays:
[1] = all compositions, in water; cited from earlier work
[2] = visual inspection of mixtures of monocaproin with polar solvents (miscibility); assay type: physicochemical
Source text: Many galenic formulations of drugs contain polar solvents.

[3] = diluted water solution; cited from earlier work

## CCCCCC(=O)OCC(O)CO (stereo not drawn) [monocaproin, glycerolmonohexanoate]
[1]
  phase behaviour of aqueous system: one single liquid phase at all compositions
[2]; 5% Ethanol / 5% Propylene Glycol (w/w), 90% monocaproin
  Appearance: clear, low viscous
[2]; 10% (w/w) Ethanol, 90% monocaproin
  Appearance: clear, low viscous
[2]; 10% (w/w) Propylene Glycol, 90% monocaproin
  Appearance: clear, low viscous
[2]; 90% (w/w) Ethanol, 10% monocaproin
  Appearance: clear, low viscous
[3]
  critical micellar concentration (cmc): 160 mM
